Holding throughout (assay type): ADME, organism-based
Series [1] in a line: AUC(infinity) in BALB/c mouse at 1 mg/kg, iv. More on the design: time infinity, dose 1 mg/kg, route intravenous. The conditions noted are these: plasma.
Series [2] is described as follows: Cmax in BALB/c mouse at 1 mg/kg, iv. To be noted: in vivo. More on the design: dose 1 mg/kg, route intravenous.
The nature of series [3]: Volume of distribution at steady state in BALB/c mouse at 1 mg/kg, iv. More on the design: dose 1 mg/kg, route intravenous. The conditions noted are these: in vivo, read-out: Vdss.
Series [4] in a line: Oral bioavailability in BALB/c mouse at 5 mg/kg. To be noted: in vivo.
The nature of series [5]: Cmax in BALB/c mouse at 5 mg/kg, po. More on the design: dose 5 mg/kg, route oral. The conditions noted are these: in vivo.
The nature of series [6]: Tmax in BALB/c mouse at 1 mg/kg, iv. More on the design: dose 1 mg/kg, route intravenous. To be noted: in vivo.
A short description of series [7]: Tmax in BALB/c mouse at 5 mg/kg, po. More on the design: dose 5 mg/kg, route oral. To be noted: in vivo.
Series [8] can be described thus: AUC(infinity) in BALB/c mouse at 5 mg/kg, po. More on the design: time infinity, dose 5 mg/kg, route oral. To be noted: plasma.

SMILES strings stand for the structures.

The source of these data is ChEMBL document CHEMBL2390838, “Structure-based identification of ureas as novel nicotinamide phosphoribosyltransferase (Nampt) inhibitors” (J Med Chem, 2013).

Broadly, the AUC(0-inf) is the area under the concentration-time curve extrapolated to infinity. A higher AUC(0-inf) goes with more exposure. One may read the Cmax as the maximum level reached in the sampled fluid or tissue. The bioavailability is the share of a dose that reaches the circulation, judged against a reference dose that is usually intravenous. A low value points to little systemic uptake. Usually Tmax stands for the time at which the peak concentration occurs.

For `O=C(NCc1cccnc1)Nc1ccc(S(=O)(=O)N2CC3CCC(C2)O3)cc1`, the AUC(0-inf) in series [1] was found to be 0.92 µM·h; in series [8], 1.4 µM·h. The values for the Cmax in series [2] and in series [5] were 2700 nM and 1100 nM, respectively. In addition, in series [3], the Vd came out at 1.1 L/kg. In series [4], this molecule registered a bioavailability of 26%. Besides, the Tmax turned out to be 4.8 min in series [6] and 30 min in series [7].
